Assay results from ChEMBL document CHEMBL5512688 (J Med Chem, 2024).

Assays:
[1] = AUC (0 to 24 hrs) in ICR mouse at 1 mg/kg, iv measured upto 24 hrs by LC-MS/MS analysis; type: ADME, organism-based; settings: in vivo
A-427 [2] = assay: Induction of apoptosis in human A-427 cells assessed as viable cells at 200 nM measured for 48 hrs by Annexin V/PI double staining based flow cytometry analysis (reference value: 97.7%); type: functional; settings: read-out: Activity
LoVo = assay: Antiproliferative activity against human LoVo cells assessed as inhibition of cell growth incubated for 72 hrs by CCK-8 method; type: functional, cell-based
[3] = target: T1, Mitogen-activated protein kinase kinase kinase 19 (Homo sapiens) (UniProt Q56UN5); assay: Inhibition of MAP3K19 (unknown origin) at 1 uM relative to control
T1 sequence (whole entry): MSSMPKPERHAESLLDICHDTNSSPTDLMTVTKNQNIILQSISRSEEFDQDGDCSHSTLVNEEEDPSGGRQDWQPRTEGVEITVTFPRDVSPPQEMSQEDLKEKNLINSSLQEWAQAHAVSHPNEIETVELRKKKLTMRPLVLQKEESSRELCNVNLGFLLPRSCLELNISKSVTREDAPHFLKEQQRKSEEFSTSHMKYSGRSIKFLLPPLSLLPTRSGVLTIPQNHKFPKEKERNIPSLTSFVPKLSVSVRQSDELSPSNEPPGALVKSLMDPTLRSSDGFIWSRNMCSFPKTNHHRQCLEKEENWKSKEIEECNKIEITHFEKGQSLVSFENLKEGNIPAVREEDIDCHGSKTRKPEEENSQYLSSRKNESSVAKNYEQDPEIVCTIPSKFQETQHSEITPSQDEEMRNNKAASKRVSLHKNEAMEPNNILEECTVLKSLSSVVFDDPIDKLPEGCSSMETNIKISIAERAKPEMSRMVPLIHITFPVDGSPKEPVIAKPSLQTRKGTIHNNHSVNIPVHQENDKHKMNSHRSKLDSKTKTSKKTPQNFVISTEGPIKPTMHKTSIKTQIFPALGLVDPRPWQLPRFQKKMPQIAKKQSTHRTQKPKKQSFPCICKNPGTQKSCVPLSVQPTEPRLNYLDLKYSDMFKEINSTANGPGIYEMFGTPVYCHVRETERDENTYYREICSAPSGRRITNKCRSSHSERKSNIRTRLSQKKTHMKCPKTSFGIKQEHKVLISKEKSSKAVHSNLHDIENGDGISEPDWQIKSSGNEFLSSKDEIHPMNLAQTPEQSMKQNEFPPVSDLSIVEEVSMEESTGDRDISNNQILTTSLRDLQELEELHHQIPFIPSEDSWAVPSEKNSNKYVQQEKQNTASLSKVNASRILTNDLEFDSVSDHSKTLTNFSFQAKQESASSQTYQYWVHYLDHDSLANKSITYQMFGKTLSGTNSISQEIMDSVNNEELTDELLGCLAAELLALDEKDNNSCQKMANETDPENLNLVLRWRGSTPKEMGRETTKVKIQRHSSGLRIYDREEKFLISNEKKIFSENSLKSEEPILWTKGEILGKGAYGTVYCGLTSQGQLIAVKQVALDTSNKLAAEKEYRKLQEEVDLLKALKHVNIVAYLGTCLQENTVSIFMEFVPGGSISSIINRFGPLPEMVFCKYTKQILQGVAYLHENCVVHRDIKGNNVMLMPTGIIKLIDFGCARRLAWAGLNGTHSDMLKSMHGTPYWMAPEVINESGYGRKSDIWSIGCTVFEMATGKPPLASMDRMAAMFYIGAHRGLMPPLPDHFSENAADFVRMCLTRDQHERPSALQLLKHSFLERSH

[4] = target: T2, Cyclin-G-associated kinase (Homo sapiens) (UniProt O14976); assay: Inhibition of GAK (unknown origin) at 1 uM relative to control
T2 sequence (whole entry): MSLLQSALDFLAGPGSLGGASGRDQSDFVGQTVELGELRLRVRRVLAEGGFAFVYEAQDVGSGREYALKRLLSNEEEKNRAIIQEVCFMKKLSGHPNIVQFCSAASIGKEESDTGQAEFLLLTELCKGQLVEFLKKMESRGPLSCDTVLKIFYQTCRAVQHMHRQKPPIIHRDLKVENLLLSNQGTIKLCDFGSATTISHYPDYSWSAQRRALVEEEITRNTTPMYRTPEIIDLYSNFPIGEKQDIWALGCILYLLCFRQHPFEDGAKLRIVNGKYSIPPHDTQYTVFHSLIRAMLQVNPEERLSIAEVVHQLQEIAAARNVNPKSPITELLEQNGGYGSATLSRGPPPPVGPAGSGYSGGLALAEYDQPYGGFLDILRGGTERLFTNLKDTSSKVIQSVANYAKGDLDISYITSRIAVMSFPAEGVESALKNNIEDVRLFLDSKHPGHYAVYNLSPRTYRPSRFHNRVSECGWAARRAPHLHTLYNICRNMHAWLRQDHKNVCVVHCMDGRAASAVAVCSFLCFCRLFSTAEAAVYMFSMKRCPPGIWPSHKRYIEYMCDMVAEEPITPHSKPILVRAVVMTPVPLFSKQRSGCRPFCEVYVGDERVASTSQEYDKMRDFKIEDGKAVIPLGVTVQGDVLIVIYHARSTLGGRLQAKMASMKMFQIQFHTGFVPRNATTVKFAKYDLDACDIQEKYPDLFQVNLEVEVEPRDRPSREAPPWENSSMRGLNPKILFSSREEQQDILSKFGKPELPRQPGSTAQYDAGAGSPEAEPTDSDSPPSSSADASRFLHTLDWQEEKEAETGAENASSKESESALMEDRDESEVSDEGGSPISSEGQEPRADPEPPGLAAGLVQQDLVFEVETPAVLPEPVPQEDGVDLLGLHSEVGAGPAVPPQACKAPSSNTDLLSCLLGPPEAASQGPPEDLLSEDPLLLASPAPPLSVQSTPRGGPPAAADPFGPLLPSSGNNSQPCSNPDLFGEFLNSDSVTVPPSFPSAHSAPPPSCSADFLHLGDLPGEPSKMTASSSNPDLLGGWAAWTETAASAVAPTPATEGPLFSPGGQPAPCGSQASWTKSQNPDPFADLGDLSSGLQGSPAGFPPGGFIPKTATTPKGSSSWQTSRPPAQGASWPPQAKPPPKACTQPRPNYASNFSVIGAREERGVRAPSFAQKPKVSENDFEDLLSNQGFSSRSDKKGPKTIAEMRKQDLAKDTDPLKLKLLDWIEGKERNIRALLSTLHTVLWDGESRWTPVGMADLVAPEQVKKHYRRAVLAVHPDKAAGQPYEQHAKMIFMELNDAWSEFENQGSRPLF

A-427 [5] = assay: Induction of apoptosis in human A-427 cells assessed as late apoptotic cells at 400 nM measured for 48 hrs by Annexin V/PI double staining based flow cytometry analysis (reference value: 0.21%); type: functional
A-427 [6] = assay: Induction of cell cycle arrest in human A-427 cells assessed as accumulation of cells at G0/G1 phase at 200 nM measured for 48 hrs by flow cytometry analysis (reference value: 49.5%); type: functional
[7] = Half life in ICR mouse at 60 mg/kg, IG measured upto 24 hrs by LC-MS/MS analysis; type: ADME, organism-based; settings: in vivo, po

C=CCn1c(=O)c2cnc(Nc3ccc(N4CCN(C)CC4)cc3)nc2n1-c1cccc(-c2cnccn2)n1
AUC(0-t) at 24 h [1]: 118 ng·h/mL | viability at 0.2 µM (A-427 [2]): 60.6% | IC50 (LoVo): 82 nM | inhibition [3]: > 90% | inhibition [4]: > 90% | Activity (A-427 [5]): 29.2% | Activity (A-427 [6]): 31.6% | half-life [7]: 5.94 h
